Data as given in patent US20140148498A1, “METHODS AND COMPOSITIONS FOR THE TREATMENT OF MARFAN SYNDROME AND ASSOCIATED DISORDERS” (THE JOHNS HOPKINS UNIVERSITY, priority 2011, published 2014).
“Also recorded” adds a separate entry of the source.

Key:
AT2KO:Fbn1^C1039G/+ mice = test: Systolic blood pressure by tail cuff, MFS mice lacking AT2; assay type: in vivo; conditions: AT2KO:Fbn1^C1039G/+ versus Fbn1^C1039G/+ mice, FIG. 8
Procedure: Mice were started on medication at 8 weeks of age and continued for 7 months. Losartan was dissolved in drinking water and filtered to reach a concentration of 0.6 g/L, giving an estimated daily dose of 40-60 mg/kg/day. Enalapril was dissolved in drinking water and filtered to reach a final concentration of 0.15 g/L, giving an estimated daily dose of 10-15 mg/kg/day. […] Spironolactone was dissolved in drinking water and filtered to give an estimated dose of 20 mg/kg/day, a dose previously shown to have in-vivo phenotypic benefit in cardiovascular disease states (S. Sakurabayashi-Kitade et al., Atherosclerosis 206, 54 (2009)). Placebo-treated animals received regular drinking water. Blood pressures were analyzed by taking 20 tail cuff blood pressures per day over 5 days in each mouse to habituate the mice to the tail cuff pressure system, and the blood pressures obtained on the last day were averaged. At least 4 mice for each treatment group were analyzed.

ERK1/2 = test: Western blot of proximal ascending aorta: ERK1/2 activation (Examples 6-8); assay type: in vivo, mice; conditions: Fbn1^C1039G/+ mice, compared with placebo-treated littermates, FIG. 16B
From the text: All mice were cared for under strict compliance with the Animal Care and Use Committee of the Johns Hopkins University School of Medicine. The Smad4 haploinsufficient mice were a generous gift from Dr. Chuxia Deng (NIH/NIDDK, Bethesda). The Fbn1^C1039G/+ line was maintained on a C57BL/6 background, allowing for valid comparisons. In order to further accommodate the potential for temporal- or background-specific variation in genetic or pharmacological manipulation experiments, all comparisons were made between contemporary littermates. Mice were checked daily for death and all mice found dead were immediately necropsied to assess for evidence of aortic dissection. Mice were killed with an inhalation overdose of halothane (Sigma-Aldrich, St. Louis). Mice underwent immediate laparotomy, descending abdominal aortic transection, and PBS (pH 7.4) infusion through the left ventricle to flush out the blood. For Western blot analysis, the proximal ascending aorta (root to right brachiocephalic trunk) was removed, flash frozen in liquid nitrogen and stored at −80° C. Following PBS infusion, mice analyzed for aortic histology had latex injected under low pressure into the left ventricular apex until it was visible in the descending abdominal aorta. The mice were then fixed for 24 hours in 10% buffered formalin, after which the heart and aorta were removed and stored in 70% ethanol.
Mouse monoclonal TGFβNAb (1d11; R&D Systems, Minneapolis) was reconstituted in PBS and administered via intraperitoneal injection 3 times a week at a dose of 5 mg/kg. Treatment was initiated at 1 month of age and continued for 2 months. IgG (Zymed Laboratories Inc, San Francisco) was reconstituted in PBS, and administered at a dose of 10 mg/kg as a control. […]
Protein was extracted using the reagents and protocol from a Total Protein Extraction Kit, in conjunction with a Protein Phosphatase Inhibitor Cocktail (Millipore, MA). […] Equal protein loading of samples was determined by a protein assay (BioRad, CA) and confirmed by probing with antibodies against β-Actin or GAPDH (Sigma, Mo.). […]

Fbn1^C1039G/+ mice = test: Aortic wall architecture score (VVG staining); assay type: in vivo; conditions: FIG. 9
Procedure: Latex-infused ascending aortas were transected just above the level of the aortic valve, and 2-3 mm transverse sections were mounted in 4% agar prior to paraffin fixation. Five micrometer aortic sections underwent Verhoeff-van Giesen (VVG) staining and were imaged at 40× magnification, using a Nikon Eclipse E400 microscope. Wall thickness of the aortic media was measured by a single blinded observer at 16 different locations around the most proximal ascending aortic ring and averaged. Wall architecture of 4 representative sections for each mouse was assessed by the same 3 blinded observers and graded on an arbitrary scale of 1 (indicating no breaks in the elastic fiber) to 5 (indicating diffuse fragmentation), and the results were averaged. Elastic fiber content was quantified in four separate representative images of each section of the most proximal ascending aorta by a single blinded observer, using NIS Elements Advanced Research (Nikon, Japan). The aortic media and the elastic fibers were individually outlined and their areas calculated. The respective areas were averaged from all the images of a given aortic section and the ratio of elastic fiber content to total aortic media was determined. Individual lobes of the lungs were mounted in 4% agar and fixed in paraffin. Five micrometer lung sections underwent hematoxylin and eosin staining and were imaged at 10× magnification, using a Nikon Eclipse E400 microscope. Five fields were analyzed for each lobe of each lung by a single blinded observer, and a mean linear intercept was calculated using a previously described method (J. P. Habashi et al., Science 312, 117 (2006); and E. R. Neptune et al., Nat. Genet. 33, 407 (2003)).

## CCCCc1nc(Cl)c(CO)n1Cc1ccc(-c2ccccc2-c2nn[nH]n2)cc1 [losartan]
AT2KO:Fbn1^C1039G/+ mice
  Systolic blood pressure: no difference in blood pressure between the groups; also recorded: lowered blood pressure equally
ERK1/2
  ERK1/2 activation: significant reduction in ERK1/2 activation
Fbn1^C1039G/+ mice
  Aortic wall architecture score: significantly more beneficial than both placebo and enalapril treatment; also recorded: significant improvement
